Measurements reported in patent publication US8324245B2, “Quinoline derivative and quinazoline derivative inhibiting self-phosphorylation of hepatocytus proliferator receptor, and medicinal composition containing the same” (Kyowa Hakko Kirin Co., Ltd., priority 2001, dated 2012).

Molecular target: T1, met (HGF receptor) in human gastric cancer cells MKN45 (Homo sapiens, UniProt P08581)
T1 construct: endogenous in cells; host or cells: MKN45 human gastric cancer cells
Assay: Inhibitory activity against met-autophosphorylation using ELISA method (2), MKN45 cells, HGF-independent
Format: cell-based
Method: Cells were cultured with RPMI medium containing 0.1% fetal calf serum in 96-well flat-bottom plate in an amount of 3×10^4 per well, and were incubated at 37° C. overnight. The medium was then replaced by a fresh RPMI medium containing 0.1% fetal calf serum. A solution of the test compound in dimethyl sulfoxide was added to each well, and the incuvation was continued at 37° C. for additional one hr. The medium was removed, the cells were washed with phosphate buffered saline (pH 7.4), and 50 μl of a lysis buffer (20 mM HEPES (pH 7.4), 150 mM NaCl, 0.2% Triton X-100, 10% glycerol, 5 mM sodium orthovanadylate, 5 mM disodium ethylenediaminetetraacetate, and 2 mM Na4P2O7) was then added thereto. The mixture was shaken at 4° C. for 2 hr to prepare a cell extract.
Separately, phosphate buffered saline (50 μl, pH 7.4) containing 5 μg/ml of anti-phospho-tyrosine antibody (PY20; purchased from Transduction Laboratories) was added to a microplate for ELISA (Maxisorp; purchased from NUNC), followed by gentle agitation at 4° C. overnight to coat the surface of the wells with the antibody. After washing of the plate, 300 μl of a blocking solution was added, followed by gentle agitation at room temperature for 2 hr to perform blocking. After washing, the whole quantity of the cell extract was transferred to the wells, and the plate was then allowed to stand at 4° C. overnight. After washing, an anti-HGF receptor antibody (h-Met (C-12), purchased from Santa Cruz Biotechnology) was allowed to react at room temperature for one hr, and, after washing, a peroxidase-labeled anti-rabbit Ig antibody (purchased from Amersham) was allowed to react at room temperature for one hr. After washing, a chromophoric substrate for peroxidase (purchased from Sumitomo Bakelite Co., Ltd.) was added thereto to initiate a reaction. After a suitable level of color development, a reaction termination solution was added to stop the reaction, and the absorbance at 450 nm was measured with a microplate reader.

T1 sequence (P08581 25-1390): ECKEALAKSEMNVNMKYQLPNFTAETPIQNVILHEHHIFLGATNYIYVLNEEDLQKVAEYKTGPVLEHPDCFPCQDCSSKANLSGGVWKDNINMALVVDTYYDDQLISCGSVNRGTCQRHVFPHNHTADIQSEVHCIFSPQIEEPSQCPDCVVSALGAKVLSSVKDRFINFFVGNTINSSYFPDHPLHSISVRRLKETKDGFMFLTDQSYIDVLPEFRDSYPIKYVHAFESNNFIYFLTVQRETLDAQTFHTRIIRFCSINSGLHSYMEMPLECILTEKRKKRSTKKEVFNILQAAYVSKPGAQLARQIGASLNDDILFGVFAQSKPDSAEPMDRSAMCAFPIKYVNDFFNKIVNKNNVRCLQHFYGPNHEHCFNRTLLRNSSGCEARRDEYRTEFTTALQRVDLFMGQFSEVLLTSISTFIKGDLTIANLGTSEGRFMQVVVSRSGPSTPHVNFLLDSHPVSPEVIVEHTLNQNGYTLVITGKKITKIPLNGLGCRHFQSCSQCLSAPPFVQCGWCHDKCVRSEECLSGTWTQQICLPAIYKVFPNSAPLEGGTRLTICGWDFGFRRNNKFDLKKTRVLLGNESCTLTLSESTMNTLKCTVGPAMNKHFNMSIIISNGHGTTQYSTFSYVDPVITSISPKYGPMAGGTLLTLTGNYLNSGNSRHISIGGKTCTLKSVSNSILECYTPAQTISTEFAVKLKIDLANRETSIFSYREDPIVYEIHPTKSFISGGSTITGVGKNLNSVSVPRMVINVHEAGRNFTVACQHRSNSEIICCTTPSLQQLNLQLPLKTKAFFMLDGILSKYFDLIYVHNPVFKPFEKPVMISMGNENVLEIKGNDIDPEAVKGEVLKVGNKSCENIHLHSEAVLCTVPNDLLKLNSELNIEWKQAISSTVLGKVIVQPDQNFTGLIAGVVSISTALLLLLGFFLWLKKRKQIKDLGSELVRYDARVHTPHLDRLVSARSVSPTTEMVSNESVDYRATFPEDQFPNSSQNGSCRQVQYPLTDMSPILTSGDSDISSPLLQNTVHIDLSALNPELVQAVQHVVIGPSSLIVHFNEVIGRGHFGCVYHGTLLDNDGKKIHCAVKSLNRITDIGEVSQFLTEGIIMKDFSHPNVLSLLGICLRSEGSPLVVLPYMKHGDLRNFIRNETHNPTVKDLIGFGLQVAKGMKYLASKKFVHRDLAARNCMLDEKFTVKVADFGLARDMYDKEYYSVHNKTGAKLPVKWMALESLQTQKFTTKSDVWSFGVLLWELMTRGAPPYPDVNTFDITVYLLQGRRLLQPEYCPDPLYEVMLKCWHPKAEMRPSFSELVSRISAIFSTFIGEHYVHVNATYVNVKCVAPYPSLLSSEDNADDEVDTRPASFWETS

IC50 | SMILES
24.1 nM | COc1cc2c(Oc3ccc(NC(=O)NC(=O)Cc4ccccc4F)cc3F)ccnc2cc1OCCCN1CCCCC1 [Example 295, 1-{3-Fluoro-4-[6-methoxy-7-(3-piperidin-1-yl-propoxy)-quinolin-4-yloxy]-phenyl}-3-[2-(2-fluoro-phenyl)-acetyl]-urea]
3010 nM | COc1cc2nccc(Oc3ccc(NC(=O)NC(=O)Nc4ccc5c(c4)CCC5)cc3)c2cc1OC [Example 243, N-(2,3-dihydro-1H-5-indenyl)-({[4-(6,7-dimethoxyquinolin-4-yloxy)anilino]carbonyl}amino)-methanamide]
25.1 nM | COc1cc2c(Oc3ccc(NC(=S)NC(=O)Cc4ccccc4F)cc3F)ccnc2cc1OCCN1CCOCC1 [Example 278, 1-{3-Fluoro-4-[6-methoxy-7-(2-morpholin-4-yl-ethoxy)-quinolin-4-yloxy]-phenyl}-3-[2-(2-fluoro-phenyl)-acetyl]-thiourea]
30.8 nM | COc1cc2nccc(Oc3ccc(NC(=O)CC(=O)Nc4ccccc4)cc3)c2cc1OC [Example 100, N-[4-(6,7-dimethoxyquinolin-4-yloxy)phenyl]-N′-phenylmalonamide]
285 nM | COc1cc2nccc(Oc3ccc(NC(=O)NC(=O)CC4C5CCC4CC5)cc3Cl)c2cc1OC (stereo not drawn) [Example 128, 1-(2-bicyclo[2.2.1]hepto-7-ylacetyl)-3-[3-chloro-4-(6,7-dimethoxyquinolin-4-yloxy)phenyl]urea]
32.8 nM | COc1cc2c(Oc3ccc(NC(=O)NC(=O)Cc4ccc(F)cc4)cc3F)ccnc2cc1OCC(O)CN1CCOCC1 (stereo not drawn) [Example 336, 1-{3-Fluoro-4-[7-(2-hydroxy-3-morpholin-1-yl-propoxy)-6-methoxy-quinolin-4-yloxy]-phenyl}-3-[2-(4-fluoro-phenyl)-acetyl]-urea]
34.1 nM | COc1cc2nccc(Oc3ccc(NC(=O)NC(=O)Cc4cccs4)cc3F)c2cc1OC [Example 31, 1-[4-(6,7-dimethoxyquinolin-4-yloxy)-3-fluoro-phenyl]-3-(2-thiophen-2-ylacetyl)urea]
386 nM | COc1cc2nccc(Oc3ccc(NC(=O)NC(=O)Nc4cccc(F)c4)cc3)c2cc1OC [Example 251, N-(3-fluorophenyl)-({[4-(6,7-dimethoxy-quinolin-4-yloxy)anilino]carbonyl}amino)methanamide]
297 nM | COc1cc2nccc(Oc3ccc(NC(=O)CC(=O)Nc4cccc(O)c4)cc3)c2cc1OC [Example 220, N-[4-(6,7-dimethoxyquinolin-4-yloxy)phenyl]-N′-(3-hydroxyphenyl)malonamide]
232 nM | COc1cc2nccc(Oc3ccc(NC(=O)NC(=O)Cc4c(F)cccc4F)c(F)c3)c2cc1OC [Example 134, 1-[2-(2,6-difluorophenyl)acetyl]-3-[4-(6,7-dimethoxyquinolin-4-yloxy)-2-fluorophenyl]urea]
30.7 nM | COc1cc2nccc(Oc3ccc(NC(=O)NC(=O)Cc4ccccc4)cc3F)c2cc1OC [Example 17, 1-[4-(6,7-dimethoxyquinolin-4-yloxy)-3-fluoro-phenyl]-3-phenylacetylurea]
333 nM | COc1cc2nccc(Oc3ccc(NC(=O)CC(=O)NC4CCCCC4)cc3)c2cc1OC [Example 217, N-cyclohexyl-N′-[4-(6,7-dimethoxyquinolin-4-yloxy)phenyl]malonamide]
357 nM | COc1cc2nccc(Oc3ccc(NC(=O)NC(=O)Nc4c(C)cccc4C)cc3)c2cc1OC [Example 258, N-(2,6-dimethylphenyl)-({[4-(6,7-dimethoxy-quinolin-4-yloxy)anilino]carbonyl}amino)methanamide]
2480 nM | COc1cc2nccc(Oc3ccc(NC(=S)NC(=O)CCCCl)cc3F)c2cc1OC [Example 148, 1-(4-chloro-butyryl)-3-[4-(6,7-dimethoxy-quinolin-4-yloxy)-3-fluorophenyl]thiourea]
286 nM | COc1cc2nccc(Oc3ccc(NC(=O)NC(=O)Nc4ccc(C)cc4)cc3)c2cc1OC [Example 257, N-(4-methylphenyl)-({[4-(6,7-dimethoxy-quinolin-4-yloxy)anilino]carbonyl}amino)methanamide]
91.8 nM | COc1cc2nccc(Oc3ccc(NC(=O)CC(=O)Nc4ccc(F)cc4F)cc3)c2cc1OC [Example 102, N-(2,4-difluorophenyl)-N′-[4-(6,7-dimethoxy-quinolin-4-yloxy)phenyl]malonamide]

IC50 | SMILES
300 nM | COc1cc2nccc(Oc3ccc(NC(=S)NC(=O)Cc4c(F)ccc(F)c4F)cc3Cl)c2cc1OC [Example 207, 1-[3-chloro-4-(6,7-dimethoxyquinolin-4-yloxy)phenyl]-3-[2-(2,3,6-trifluorophenyl)acetyl]-thiourea]
291 nM | COc1cc2nccc(Oc3ccc(NC(=S)NC(=O)Cc4cc(F)ccc4F)cc3F)c2cc1OC [Example 195, 1-[2-(2,5-difluorophenyl)acetyl]-3-[4-(6,7-dimethoxyquinolin-4-yloxy)-3-fluorophenyl]thiourea]
343 nM | COc1cc2nccc(Oc3ccc(NC(=O)NC(=O)Nc4cccc(C(C)=O)c4)cc3)c2cc1OC [Example 261, N-(3-acetylphenyl)-({[4-(6,7-dimethoxy-quinolin-4-yloxy)anilino]carbonyl}amino)-methanamide]
21.1 nM | CCN(CC)CCCOc1cc2nccc(Oc3ccc(NC(=O)NC(=O)Cc4ccccc4F)cc3F)c2cc1OC [Example 293, 1-{4-[7-(3-Diethylamino-propoxy)-6-methoxy-quinolin-4-yloxy]-3-fluoro-phenyl}-3-[2-(2-fluoro-phenyl)-acetyl]-urea]
653 nM | COc1cc2nccc(Oc3ccc(NC(=O)NC(=O)CSC4CCCCC4)cc3)c2cc1OC [Example 113, 1-(2-cyclohexylsulfanylacetyl)-3-[4-(6,7-dimethoxyquinolin-4-yloxy)phenyl]urea]
27 nM | COc1cc2nccc(Oc3ccc(NC(=S)NC(=O)Cc4ccccc4)c(F)c3)c2cc1OC [Example 58, 1-[4-(6,7-dimethoxyquinolin-4-yloxy)-2-fluorophenyl]-3-phenylacetylthiourea]
252 nM | COc1cc2nccc(Oc3ccc(NC(=S)NC(=O)Cc4cccc(Cl)c4)cc3Cl)c2cc1OC [Example 174, 1-[3-chloro-4-(6,7-dimethoxyquinolin-4-yloxy)phenyl]-3-[2-(3-chlorophenyl)acetyl]thiourea]
322 nM | COc1cc2nccc(Oc3ccc(NC(=S)NC(=O)Cc4cc(F)cc(F)c4)c(F)c3)c2cc1OC [Example 196, 1-[2-(3,5-difluorophenyl)acetyl]-3-[4-(6,7-dimethoxyquinolin-4-yloxy)-2-fluorophenyl]thiourea]
27.7 nM | COc1cc2nccc(Oc3ccc(NC(=O)NC(=O)Cc4ccc(F)cc4)cc3Cl)c2cc1OC [Example 24, 1-[3-chloro-4-(6,7-dimethoxyquinolin-4-yloxy)phenyl]-3-[2-(4-fluorophenyl)acetyl]urea]
347 nM | COc1cc2nccc(Oc3ccc(NC(=O)NC(=O)Nc4ccc(F)c(F)c4)cc3)c2cc1OC [Example 264, N-(3,4-difluorophenyl)-({[4-(6,7-dimethoxy-quinolin-4-yloxy)anilino]carbonyl}amino)methanamide]
18.5 nM | COc1cc2c(Oc3ccc(NC(=S)NC(=O)Cc4cccc(F)c4)cc3F)ccnc2cc1OCC(O)CN1CCCC1 (stereo not drawn) [Example 325, 1-{3-Fluoro-4-[7-(2-hydroxy-3-pyrrolidin-1-yl-propoxy)-6-methoxy-quinolin-4-yloxy]-phenyl}-3-[2-(3-fluoro-phenyl)-acetyl]-thiourea]
114 nM | COc1cc2nccc(Oc3ccc(NC(=O)NC(=O)Cc4ccc(F)c(F)c4)cc3)c2cc1OC [Example 39, 1-[2-(3,4-difluorophenyl)acetyl]-3-[4-(6,7-dimethoxyquinolin-4-yloxy)phenyl]urea]
232 nM | COc1ccccc1CC(=O)NC(=S)Nc1ccc(Oc2ccnc3cc(OC)c(OC)cc23)cc1 [Example 153, 1-[4-(6,7-dimethoxyquinolin-4-yloxy)phenyl]-3-[2-(2-methoxyphenyl)acetyl]thiourea]
148 nM | COc1cc2nccc(Oc3ccc(NC(=S)NC(=O)Cc4ccc(C)cc4)c(F)c3)c2cc1OC [Example 92, 1-[4-(6,7-dimethoxyquinolin-4-yloxy)-2-fluoro-phenyl]-3-(2-p-tolylacetyl)thiourea]
1980 nM | COc1cc2nccc(Oc3ccc(NC(=O)CC(=O)NCc4ccccc4)cc3)c2cc1OC [Example 215, N-benzyl-N′-[4-(6,7-dimethoxyquinolin-4-yloxy)phenyl]malonamide]
285 nM | COc1cc2nccc(Oc3ccc(NC(=O)NC(=O)Cc4cc(F)cc(F)c4)cc3F)c2cc1OC [Example 142, 1-[2-(3,5-difluorophenyl)acetyl]-3-[4-(6,7-dimethoxyquinolin-4-yloxy)-3-fluorophenyl]urea]

SMILES | IC50
COc1cc2c(Oc3ccc(NC(=O)NC(=O)Cc4ccc(F)cc4)cc3F)ccnc2cc1OCCCCN1CCCCC1 [Example 42, 1-{3-fluoro-4-[6-methoxy-7-(4-piperidine-1-yl-butoxy)quinolin-4-yloxy]phenyl}-3-[2-(4-fluorophenyl)-acetyl]urea] | 190 nM
